Consider one molecule from paper PMC9369154, “Molecular Basis for Luteolin as a Natural TatD DNase Inhibitor in Trueperella pyogenes” (International Journal of Molecular Sciences, 2022).

One assay deals with T1, TatD825 (Trueperella pyogenes, UniProt A0ABV3NC31).
T1 construct: gene V3M73_06995; His-TatD 825 recombinant protein expressed in E. coli BL21 (DE3)
The experiment in a line: SPR (Biacore T200, NTA chip, […] binding model); DNase gel assay with Mg2+ also shows inhibition. For orientation: SPR reads the build-up and loss of mass on a sensor chip optically.

The target in a further assay is T2, TatD960 (Trueperella pyogenes, UniProt A0ABV3N8R6).
T2 construct: gene V3M73_00540; His-TatD 960 recombinant protein expressed in E. coli BL21 (DE3)
The description is as above.

In general, Kd refers to the equilibrium constant for the complex coming apart. Turning to `O=c1cc(-c2ccc(O)c(O)c2)oc2cc(O)cc(O)c12` [luteolin, 3′,4′,5,7-tetrahydroxyflavone], the Kd on TatD825 amounted to 5.65 µM; on TatD960, 6.27 µM.
